From patent US20250042864A1, “SOLID STATE FORM OF TAFAMIDIS” (TEVA PHARMACEUTICALS INTERNATIONAL GMBH, priority 2021, published 2025) come the findings set out here.

What all share (assay type): physicochemical
Data set [1] in a line: particle size / morphology of crystalline forms. Conditions: morphology comparison of crystalline forms.
Data set [2] in a line: water solubility of crystalline forms of tafamidis.
Data set [3] in a line: stability to suspension (slurry) in PEG 400 at room temperature, analysed by XRPD. Conditions: slurry in PEG 400, room temperature, XRPD (FIG. 6). On the procedure: 50 mg of samples of Form Va and Form 4 were placed into glass vials. 1 ml of PEG 400 was added at room temperature. The slurries were each mixed using a magnetic stirrer. The resulting samples were analysed by XRPD after 2 hours and after 7 days.

In brackets after ≈: the same amount, converted by molar mass.

Broadly, the solubility is the concentration that dissolves in the medium under given conditions.

For the molecule `O=C(O)c1ccc2nc(-c3cc(Cl)cc(Cl)c3)oc2c1` [Form 1, 2-(3,5-dichlorophenyl)-1,3-benzoxazole-6-carboxylic acid], the particle size entry in data set [1] was “up to 100 μm”.

`O=C(O)c1ccc2nc(-c3cc(Cl)cc(Cl)c3)oc2c1` [Form 6, 2-(3,5-dichlorophenyl)-1,3-benzoxazole-6-carboxylic acid] showed a particle size in data set [1] of more than 100 μm.

In data set [2], `O=C(O)c1ccc2nc(-c3cc(Cl)cc(Cl)c3)oc2c1` [Form V, 2-(3,5-dichlorophenyl)-1,3-benzoxazole-6-carboxylic acid] gave a water solubility of 1.47 µg/mL (≈ 4.77 µM).

Regarding `O=C(O)c1ccc2nc(-c3cc(Cl)cc(Cl)c3)oc2c1` [Form Va, 2-(3,5-dichlorophenyl)-1,3-benzoxazole-6-carboxylic acid], the solubility in data set [2] is 2.21 µg/mL (≈ 7.17 µM). Further, in data set [3], the “time for which the form is stable in PEG 400 slurry” value is “at least 7 days”. For the same molecule, the particle size in data set [1] is 5-10 μm.
